Legend:
GSK-3 = settings: literature report; cited from earlier work
[1] = test system: central and peripheral neurons grown in culture; settings: death induced by reduced phosphatidyl inositol pathway activity (Cross et al.); cited from earlier work
[2] = test system: perfused human ocular anterior segments; experiment: Outflow rate in perfused human ocular anterior segments maintained in culture
Protocol: (§1) Recently it has been discovered that frizzled related protein (FRP) is differentially expressed in a number of glaucomatous trabecular meshwork cell lines. […] The decreased flow rate in the cultured anterior segments models an increase in resistance to outflow (increase in intraocular pressure) in intact eye.
Human ocular anterior segments are perfused with Dulbecco's modified Eagle's medium (DMEM) at a constant pressure of 11 mm Hg. The outflow rate of each eye is measured by weighing its reservoir at specified periods. After a stabilization period, the eyes are perfused with either vehicle or FRP-1 (10 μg/ml) and their outflow rates monitored for 2-5 days. […] Inhibitor is added and the anterior segment is perfused for an additional 2-4 days. Outflow rate is measured by weighing its reservoir at specific periods.

β-catenin = β-catenin protein levels in ciliary body and trabecular meshwork of perfused anterior segments; set-up: species or system human; settings: ciliary body and trabecular meshwork (TM) after FRP-1 perfusion
Text: as §1

Molecule	GSK-3 inhibition (GSK-3)	protection of neurons from death [1]	further results
CN(C)CCCn1cc(C2=C(c3c[nH]c4ccccc34)C(=O)NC2=O)c2ccccc21 [GF1092]	inhibitors of GSK-3	–	–
Cn1cc(C2=C(c3ccc(Cl)cc3Cl)C(=O)NC2=O)c2ccccc21 [SB216763]	–	protected both central and peripheral neurons	–
O=C1NC(=O)C(c2ccccc2[N+](=O)[O-])=C1Nc1ccc(O)c(Cl)c1 [SB-415286]	–	protected both central and peripheral neurons	–
Cn1cc(C2=C(c3cn(CCCSC(=N)N)c4ccccc34)C(=O)NC2=O)c2ccccc21 [Ro 31-8220]	inhibitors of GSK-3	–	–
FRP-1: frizzled related protein, secreted protein that antagonizes the Wnt signaling pathway (protein, UniProt Q8N474 32-314, looked up) Secreted frizzled-related …: SEYDYVSFQSDIGPYQSGRFYTKPPQCVDIPADLRLCHNVGYKKMVLPNLLEHETMAEVKQQASSWVPLLNKNCHAGTQVFLCSLFAPVCLDRPIYPCRWLCEAVRDSCEPVMQFFGFYWPEMLKCDKFPEGDVCIAMTPPNATEASKPQGTTVCPPCDNELKSEAIIEHLCASEFALRMKIKEVKKENGDKKIVPKKKKPLKLGPIKKKDLKKLVLYLKNGADCPCHQLDNLSHHFLIMGRKVKSQYLLTAIHKWDKKNKEFKNFMKKMKNHECPTFQSVFK	–	–	aqueous humor outflow ([2]; FRP-1 10 μg/ml, constant pressure 11 mm Hg, outflow monitored 2-5 days): decrease in aqueous humor outflow; flowrate ([2]; perfusion of FRP-1 through perfused human ocular anterior segments in culture): decrease in flowrate; β-catenin protein levels (β-catenin): decrease in β-catenin protein levels
